Measured values published in patent US11065265B2, “Compositions of fosaprepitant and methods of preparation” (SPES PHARMACEUTICALS INC., priority 2018, dated 2021).

How the values were obtained:
[1] = cited from earlier work
[2] = Solubility enhancing effect of cyclodextrin derivative on aprepitant in aqueous medium; format: physicochemical

Increase in Aprepitant Solubility ([2]; Cyclodextrin Derivative 0 mg/mL): 0%
Increase in Aprepitant Solubility ([2]; Cyclodextrin Derivative 32 mg/mL): 105%
Increase in Aprepitant Solubility ([2]; Cyclodextrin Derivative 64 mg/mL): 300%
Increase in Aprepitant Solubility ([2]; Cyclodextrin Derivative 128 mg/mL): 748%
Increase in Aprepitant Solubility ([2]; Cyclodextrin Derivative 160 mg/mL): 1039%
Increase in Aprepitant Solubility ([2]; Cyclodextrin Derivative 180 mg/mL): 1244%
Increase in Aprepitant Solubility ([2]; Cyclodextrin Derivative 200 mg/mL): 1322%
Increase in Aprepitant Solubility ([2]; Cyclodextrin Derivative 255 mg/mL): 1717%
SMILES: C[C@@H](O[C@H]1OCCN(Cc2n[nH]c(=O)[nH]2)[C@H]1c1ccc(F)cc1)c1cc(C(F)(F)F)cc(C(F)(F)F)c1 [Aprepitant]
solubility in non-polar solvents such as oils ([1]; non-polar solvents such as oils): reasonably high
solubility in water ([1]; water): very limited
